Assay results reported in ChEMBL document CHEMBL3885881, “DrugMatrix”.

Species on record: Rattus norvegicus
Assay: DrugMatrix - Regimen: Daily Repeat
Type: toxicity, organism-based, Sprague-Dawley
Parameters: regimen Daily Repeat, gender Male, age 6-8 weeks
Settings: in vivo, po, route oral GAVAGE, vehicle .5 % CMC; for ABSOLUTE BASOPHIL / ABSOLUTE EOSINOPHIL / ABSOLUTE LYMPHOCYTE / ABSOLUTE MONOCYTE / ABSOLUTE SEGMENTED NEUTROPHIL / BASOPHIL / EOSINOPHIL / ERYTHROCYTE COUNT / HEMATOCRIT / HEMOGLOBIN / LEUKOCYTE COUNT / LYMPHOCYTE / MEAN CORPUSCULAR HEMOGLOBIN / MEAN CORPUSCULAR HEMOGLOBIN CONCENTRATION / MEAN CORPUSCULAR VOLUME / MONOCYTE / NEUTROPHIL / NUCLEATED RED BLOOD CELLS / PLATELET COUNT: tissue Blood; for ALANINE AMINOTRANSFERASE / ALBUMIN / ALKALINE PHOSPHATASE / ASPARTATE AMINOTRANSFERASE / BLOOD UREA NITROGEN / CARBON DIOXIDE / CHLORIDE / CHOLESTEROL / CREATINE PHOSPHOKINASE / CREATININE / GLUCOSE / LACTATE DEHYDROGENASE / LIPASE / PHOSPHORUS / POTASSIUM / SODIUM / TOTAL BILIRUBIN / TOTAL PROTEIN / URIC ACID: tissue Plasma
[1] = 12 mg/kg, 72 h, dose level High, time 3 day
[2] = 12 mg/kg, 120 h, dose level High, time 5 day
[3] = […], 72 h, dose 1.2 mg/Kg, dose level Low, time 3 day
[4] = […], 120 h, dose 1.2 mg/Kg, dose level Low, time 5 day

## N[C@@H](Cc1ccc(N(CCCl)CCCl)cc1)C(=O)O
[1]
  ABSOLUTE BASOPHIL: 0 CELLS/uL
  ABSOLUTE EOSINOPHIL: 202.33 CELLS/uL
  ABSOLUTE LYMPHOCYTE: 10252.33 CELLS/uL
  ABSOLUTE MONOCYTE: 0 CELLS/uL
  ABSOLUTE SEGMENTED NEUTROPHIL: 1345.33 CELLS/uL
  BASOPHIL: 0%
  EOSINOPHIL: 1.67%
  ERYTHROCYTE COUNT: 5.67 x10E6/uL
  HEMATOCRIT: 35.43%
  HEMOGLOBIN: 13.33 G/DL
  LEUKOCYTE COUNT: 11.8 x10E3/uL
  LYMPHOCYTE: 86.67%
  MEAN CORPUSCULAR HEMOGLOBIN: 23.57 pg
  MEAN CORPUSCULAR HEMOGLOBIN CONCENTRATION: 37.63 G/DL
  MEAN CORPUSCULAR VOLUME: 62.57 fL
  MONOCYTE: 0%
  NEUTROPHIL: 11.67%
  NUCLEATED RED BLOOD CELLS: 0 /100WBC
  PLATELET COUNT: 1376 x10E3/uL
  ALANINE AMINOTRANSFERASE: 52 u/L
  ALBUMIN: 4.27 G/DL
  ALKALINE PHOSPHATASE: 346 u/L
  ASPARTATE AMINOTRANSFERASE: 88.33 u/L
  BLOOD UREA NITROGEN: 15 mg/dL
  CARBON DIOXIDE: 25.67 mmol/L
  CHLORIDE: 108.33 MEQ/L
  CHOLESTEROL: 69.67 mg/dL
  CREATINE PHOSPHOKINASE: 205 u/L
  CREATININE: 0.14 mg/dL
  GLUCOSE: 177 mg/dL
  LACTATE DEHYDROGENASE: 85.33 u/L
  LIPASE: 8.33 u/L
  PHOSPHORUS: 14 mg/dL
  POTASSIUM: 6.75 MEQ/L
  SODIUM: 147.33 MEQ/L
  TOTAL BILIRUBIN: 0.17 mg/dL
  TOTAL PROTEIN: 5.9 G/DL
  URIC ACID: 1.93 mg/dL
[2]
  ABSOLUTE BASOPHIL: 0 CELLS/uL
  ABSOLUTE EOSINOPHIL: 270.33 CELLS/uL
  ABSOLUTE LYMPHOCYTE: 13398.33 CELLS/uL
  ABSOLUTE MONOCYTE: 0 CELLS/uL
  ABSOLUTE SEGMENTED NEUTROPHIL: 1364.67 CELLS/uL
  BASOPHIL: 0%
  EOSINOPHIL: 1.67%
  ERYTHROCYTE COUNT: 5.64 x10E6/uL
  HEMATOCRIT: 35.4%
  HEMOGLOBIN: 13.53 G/DL
  LEUKOCYTE COUNT: 15.03 x10E3/uL
  LYMPHOCYTE: 89.33%
  MEAN CORPUSCULAR HEMOGLOBIN: 24.03 pg
  MEAN CORPUSCULAR HEMOGLOBIN CONCENTRATION: 38.23 G/DL
  MEAN CORPUSCULAR VOLUME: 62.83 fL
  MONOCYTE: 0%
  NEUTROPHIL: 9%
  NUCLEATED RED BLOOD CELLS: 0 /100WBC
  PLATELET COUNT: 1253 x10E3/uL
  ALANINE AMINOTRANSFERASE: 43.33 u/L
  ALBUMIN: 4.17 G/DL
  ALKALINE PHOSPHATASE: 352 u/L
  ASPARTATE AMINOTRANSFERASE: 75.67 u/L
  BLOOD UREA NITROGEN: 16 mg/dL
  CARBON DIOXIDE: 26.67 mmol/L
  CHLORIDE: 101.67 MEQ/L
  CHOLESTEROL: 68.67 mg/dL
  CREATINE PHOSPHOKINASE: 312.67 u/L
  CREATININE: 0.24 mg/dL
  GLUCOSE: 170.67 mg/dL
  LACTATE DEHYDROGENASE: 98.33 u/L
  LIPASE: 8 u/L
  PHOSPHORUS: 13.23 mg/dL
  POTASSIUM: 6.07 MEQ/L
  SODIUM: 145.27 MEQ/L
  TOTAL BILIRUBIN: 0.2 mg/dL
  TOTAL PROTEIN: 5.97 G/DL
  URIC ACID: 1.5 mg/dL
[3]
  ABSOLUTE BASOPHIL: 0 CELLS/uL
  ABSOLUTE EOSINOPHIL: 212 CELLS/uL
  ABSOLUTE LYMPHOCYTE: 11254.33 CELLS/uL
  ABSOLUTE MONOCYTE: 0 CELLS/uL
  ABSOLUTE SEGMENTED NEUTROPHIL: 1000.33 CELLS/uL
  BASOPHIL: 0%
  EOSINOPHIL: 1.67%
  ERYTHROCYTE COUNT: 5.5 x10E6/uL
  HEMATOCRIT: 35.4%
  HEMOGLOBIN: 13.5 G/DL
  LEUKOCYTE COUNT: 12.47 x10E3/uL
  LYMPHOCYTE: 90.33%
  MEAN CORPUSCULAR HEMOGLOBIN: 24.53 pg
  MEAN CORPUSCULAR HEMOGLOBIN CONCENTRATION: 38.13 G/DL
  MEAN CORPUSCULAR VOLUME: 64.3 fL
  MONOCYTE: 0%
  NEUTROPHIL: 8%
  NUCLEATED RED BLOOD CELLS: 0 /100WBC
  PLATELET COUNT: 1333.67 x10E3/uL
  ALANINE AMINOTRANSFERASE: 50 u/L
  ALBUMIN: 4.43 G/DL
  ALKALINE PHOSPHATASE: 430.67 u/L
  ASPARTATE AMINOTRANSFERASE: 84.33 u/L
  BLOOD UREA NITROGEN: 15.67 mg/dL
  CARBON DIOXIDE: 24 mmol/L
  CHLORIDE: 105.67 MEQ/L
  CHOLESTEROL: 66.67 mg/dL
  CREATINE PHOSPHOKINASE: 180.33 u/L
  CREATININE: 0.21 mg/dL
  GLUCOSE: 171.33 mg/dL
  LACTATE DEHYDROGENASE: 164 u/L
  LIPASE: 8.33 u/L
  PHOSPHORUS: 13.1 mg/dL
  POTASSIUM: 6.13 MEQ/L
  SODIUM: 147.47 MEQ/L
  TOTAL BILIRUBIN: 0.2 mg/dL
  TOTAL PROTEIN: 6.33 G/DL
  URIC ACID: 2.23 mg/dL
[4]
  ABSOLUTE BASOPHIL: 0 CELLS/uL
  ABSOLUTE EOSINOPHIL: 46.67 CELLS/uL
  ABSOLUTE LYMPHOCYTE: 6013.67 CELLS/uL
  ABSOLUTE MONOCYTE: 20.33 CELLS/uL
  ABSOLUTE SEGMENTED NEUTROPHIL: 619.33 CELLS/uL
  BASOPHIL: 0%
  EOSINOPHIL: 0.67%
  ERYTHROCYTE COUNT: 5.37 x10E6/uL
  HEMATOCRIT: 34.83%
  HEMOGLOBIN: 13.07 G/DL
  LEUKOCYTE COUNT: 6.7 x10E3/uL
  LYMPHOCYTE: 89.67%
  MEAN CORPUSCULAR HEMOGLOBIN: 24.33 pg
  MEAN CORPUSCULAR HEMOGLOBIN CONCENTRATION: 37.53 G/DL
  MEAN CORPUSCULAR VOLUME: 64.87 fL
  MONOCYTE: 0.33%
  NEUTROPHIL: 9.33%
  NUCLEATED RED BLOOD CELLS: 0 /100WBC
  PLATELET COUNT: 1151 x10E3/uL
  ALANINE AMINOTRANSFERASE: 47 u/L
  ALBUMIN: 4.33 G/DL
  ALKALINE PHOSPHATASE: 273.67 u/L
  ASPARTATE AMINOTRANSFERASE: 74.67 u/L
  BLOOD UREA NITROGEN: 14.33 mg/dL
  CARBON DIOXIDE: 29.33 mmol/L
  CHLORIDE: 101.67 MEQ/L
  CHOLESTEROL: 74.67 mg/dL
  CREATINE PHOSPHOKINASE: 206 u/L
  CREATININE: 0.18 mg/dL
  GLUCOSE: 137 mg/dL
  LACTATE DEHYDROGENASE: 89.33 u/L
  LIPASE: 8.67 u/L
  PHOSPHORUS: 11.6 mg/dL
  POTASSIUM: 5.85 MEQ/L
  SODIUM: 147.57 MEQ/L
  TOTAL BILIRUBIN: 0.2 mg/dL
  TOTAL PROTEIN: 6.17 G/DL
  URIC ACID: 0.8 mg/dL
